Entries after “also recorded” stand apart in the source; their conditions may differ.
What was measured:
[1] = target: T1, TAF1-T (TAF1 tandem bromodomain, BD1 and BD2) (Homo sapiens, UniProt P21675); experiment: Differential scanning fluorimetry (DSF) thermal shift; assay type: binding
T1 construct: tandem bromodomain (residues 1373-1635); His6 (TEV-cleavable) (cleaved yes); host or cells: E. coli BL21 (DE3)
T1 sequence (P21675 1373-1635 isoform P21675-1): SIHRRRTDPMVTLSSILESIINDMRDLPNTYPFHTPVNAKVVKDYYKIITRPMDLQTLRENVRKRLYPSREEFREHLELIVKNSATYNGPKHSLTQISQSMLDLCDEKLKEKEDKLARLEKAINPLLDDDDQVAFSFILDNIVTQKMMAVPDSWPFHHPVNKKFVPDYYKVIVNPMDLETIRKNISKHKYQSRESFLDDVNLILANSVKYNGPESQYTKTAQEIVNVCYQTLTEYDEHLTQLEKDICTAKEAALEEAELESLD

TAF1-2 (TAF1 BD2) [2] = target: T2, TAF1-2 (TAF1 BD2) (Homo sapiens, UniProt P21675); experiment: Isothermal titration calorimetry (ITC); assay type: binding; conditions: Table 3; 288.15 K
T2 construct: BD2 (residues 1501-1635); His6 (TEV-cleavable) (cleaved yes); host or cells: E. coli BL21 (DE3)
T2 sequence (P21675 1501-1635 isoform P21675-1): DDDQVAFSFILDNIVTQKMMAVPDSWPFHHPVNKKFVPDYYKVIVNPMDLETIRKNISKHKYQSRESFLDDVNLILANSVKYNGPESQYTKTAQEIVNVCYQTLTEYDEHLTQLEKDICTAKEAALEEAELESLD

TAF1-2 (TAF1 BD2) [3] = target: T2, TAF1-2 (TAF1 BD2); experiment: Differential scanning fluorimetry (DSF) thermal shift; assay type: binding
panel of 32 bromodomains = experiment: Profiling across a panel of 32 bromodomains (DiscoveRx), overall statement; assay type: binding, human; conditions: 20 μM concentration
A549 lung cancer cells = experiment: p53 pathway markers by western blot in A549 cells; assay type: cell-based, human
[4] = target: T3, TAF1-T (TAF1 tandem bromodomain) (Homo sapiens, UniProt P21675); experiment: Isothermal titration calorimetry (ITC); assay type: binding; conditions: Table 3; 298.15 K
T3 construct: tandem bromodomain (residues 1373-1635); His6 (TEV-cleavable) (cleaved yes); host or cells: E. coli BL21 (DE3)
T3 sequence (P21675 1373-1635 isoform P21675-1): T1 sequence (P21675 1373-1635 isoform P21675-1)

[5] = Table 2 (Example 2), 100 μM compound, standard deviation from two experiments
[6] = Table 2 (Example 2), 100 μM compound, standard deviation from two experiments, 100 µM

In the case of C[C@@H]1COCCN1c1cc(C2([S@](C)(=N)=O)CC2)nc(-c2cc[nH]c3nccc2-3)n1 [AZD6738], the “DSF (ΔTm, ° C.) TAF1-T” value ([1]; Table 1 (Example 1)) was 5.8 ± 0.5 °C, the ΔTm at 100 µM [1, 5] was 3.1 °C and the “DSF (ΔTm, ° C.) TAF1-T” value [1, 6] was 3.2 ± 0.1 °C. The “ITC N (stoichiometry), TAF1-2” value (TAF1-2 (TAF1 BD2) [2]) was 0.99, the “ITC TΔS, TAF1-2” value (TAF1-2 (TAF1 BD2) [2]) was 3.26 kcal/mol and the “ITC ΔH, TAF1-2” value (TAF1-2 (TAF1 BD2) [2]) was -4.36 kcal/mol. The “DSF (ΔTm, ° C.) TAF1-2” value (TAF1-2 (TAF1 BD2) [3]; Table 1 (Example 1)) was 2.9 ± 0.2 °C, the ΔTm at 100 µM (TAF1-2 (TAF1 BD2) [3]; [5]) was 3.2 °C and the “DSF (ΔTm, ° C.) TAF1-2” value (TAF1-2 (TAF1 BD2) [3]; [6]) was 3.1 ± 0.1 °C. For the same compound, the “Interaction with BRD2-2, BRD3-2, BRD4-2, CECR2 and WDR9-2” value (panel of 32 bromodomains) was “interacted weakly; also recorded: weakly interacted”, the “p53 and p21 levels” value (A549 lung cancer cells; A549, 10 μM, 24 h, western blot) was “modest increase” and the MDMX levels (A549 lung cancer cells; A549, western blot) was “modest effect”. The “ITC N (stoichiometry), TAF1-T” value [4] was 1.11, the “ITC TΔS, TAF1-T” value [4] was 2.26 kcal/mol and the “ITC ΔH, TAF1-T” value [4] was -5.82 kcal/mol.
